# Test results taken from PMC3334918, “Mutagenesis and Functional Studies with Succinate Dehydrogenase Inhibitors in the Wheat Pathogen Mycosphaerella graminicola” (PLoS ONE, 2012).
# “And” between values parts separate entries of the source, which are not always exact repeats. Equal entries are not always repeated.
# What was measured:
# Type in all cases: cell-based, Mycosphaerella graminicola
# [1] = test system: M. graminicola isolate IPO323; assay: UV mutagenesis and selection of resistant colonies on carboxamide amended AE agar
# Protocol: (§1) Selection plates were produced after adding 1% of a 100× DMSO solution of the active ingredients to pre-melted AE-agar.
# Cells were harvested from 4 days old V8 agar plates and conidial cells were suspended in liquid AE. 10^7 cells were spread onto carboxamide amended AE agar plates and mutagenized using UV Stratalinker 2400 (Stratagene) with 75 mJ cm^−2 or 50 mJ cm^−2. […] Selection plates were incubated in the dark at 20°C for 14 days. Visible colonies were picked from the primary selection plate and re-grown on fresh selection media for 2 additional weeks under the same conditions.
# [2] = test system: M. graminicola WT (IPO323); assay: microbe, parasite or virus in culture
# Protocol: (§2) To explore the sensitivity profiles conferred by amino acid substitutions at the cellular and mitochondrial level, we determined sensitivity towards 4 different compounds for 26 of the identified substitution types both in vivo using liquid culture growth (AE media) and in vitro using purified mitochondria and the succinate: Q0/DCPIP activity test (Table 3). […] Resistance factors (RF) were determined as the ratio IC50mutant/IC50WT. […] Qp site mutations are well known to influence SDH enzyme activity and stability upon catalysis, [13], [38], [41].
# (§3) Conidial cells were collected from 4 day old V8 agar plates (cultured at 18°C in the dark) using liquid AE and a cell spreader. Cell density was determined and cells re-suspended to a concentration of 5×10^5 cells ml^−1 in AE media. Sterile 96 wells microtiter plates with lids (Costar) were inoculated with 198 µl of this cell suspension (10^5 cells per well) and 2 µl of inhibitor (100× in DMSO). Final inhibitor concentrations were between 0.95 nM and 1 mM with uniform 4× dilution factor steps (11 inhibitor concentrations+1 DMSO control). Plates were incubated for 6 days at 19°C in the dark before cells were re-suspended and measured for growth (OD600 nm). IC50 values were determined by non linear curve fitting on the basis of measured OD values versus log inhibitor concentrations (GraphPad Prism 5.0 software).
# [3] = test system: wild type IPO323 M. graminicola strain; settings: minimal concentration to fully inhibit growth of WT IPO323, AE agar, 10^7 cells, 2 weeks at 20°C in the dark
# Source text: as §1
# [4] = test system: M. graminicola strain Cbx28 (SDHB_H267Y); assay: in vivo sensitivity, liquid culture growth (AE media); settings: B_H267Y, strain Cbx28; ratio IC50mutant/IC50WT
# Protocol: as §2, §3
# [5] = test system: M. graminicola strain Cbx29 (SDHB_H267L); assay: as above; settings: B_H267L, ratio IC50mutant/IC50WT
# Protocol: as §2, §3
# [6] = test system: M. graminicola strain Flu7 (SDHB_N225I); assay: as above; settings: B_N225I, ratio IC50mutant/IC50WT
# Protocol: as §2, §3
# [7] = test system: M. graminicola strain Flu110 (SDHB_P220T); assay: as above; settings: B_P220T, ratio IC50mutant/IC50WT
# Protocol: as §2, §3
# [8] = test system: M. graminicola strain Ol50 (SDHC_V88D); assay: as above; settings: C_V88D, ratio IC50mutant/IC50WT
# Protocol: as §2, §3
# [9] = test system: M. graminicola strain Flu21 (SDHC_A84I); assay: as above; settings: C_A84I, ratio IC50mutant/IC50WT
# Protocol: as §2, §3
# [10] = test system: M. graminicola strain Flu29 (SDHD_D129T); assay: as above; settings: D_D129T, ratio IC50mutant/IC50WT
# Protocol: as §2, §3
# [11] = test system: M. graminicola strain Cbx96 (SDHB_H267N); assay: as above; settings: B_H267N, ratio IC50mutant/IC50WT
# Protocol: as §2, §3
# [12] = test system: M. graminicola strain Izm7 (SDHC_N86K); assay: as above; settings: C_N86K, ratio IC50mutant/IC50WT
# Protocol: as §2, §3
# [13] = test system: M. graminicola strain Flu75 (SDHB_P220L); assay: as above; settings: B_P220L, ratio IC50mutant/IC50WT
# Protocol: as §2, §3
# [14] = test system: M. graminicola strain Cbx22 (SDHD_D129E); assay: as above; settings: D_D129E, ratio IC50mutant/IC50WT
# Protocol: as §2, §3
# [15] = test system: M. graminicola strain Flu33 (SDHB_N271K); assay: as above; settings: B_N271K, ratio IC50mutant/IC50WT
# Protocol: as §2, §3
# [16] = test system: M. graminicola strain Flu1 (SDHC_S83G); assay: as above; settings: C_S83G, ratio IC50mutant/IC50WT
# Protocol: as §2, §3
# [17] = test system: M. graminicola strain Cbx56 (SDHB_R265P); assay: as above; settings: B_R265P, ratio IC50mutant/IC50WT
# Protocol: as §2, §3
# [18] = test system: M. graminicola strain Bos64 (SDHC_T79I); assay: as above; settings: C_T79I, ratio IC50mutant/IC50WT
# Protocol: as §2, §3
# [19] = test system: M. graminicola strain Cbx67 (SDHD_D129G); assay: as above; settings: D_D129G, ratio IC50mutant/IC50WT
# Protocol: as §2, §3
# [20] = test system: M. graminicola strain Cbx106 (SDHB_N225H); assay: as above; settings: B_N225H, ratio IC50mutant/IC50WT
# Protocol: as §2, §3
# [21] = test system: M. graminicola strain Flu41 (SDHB_S218F); assay: as above; settings: B_S218F, ratio IC50mutant/IC50WT
# Protocol: as §2, §3
# [22] = test system: M. graminicola strain Cbx12 (SDHC_L85P); assay: as above; settings: C_L85P, ratio IC50mutant/IC50WT
# Protocol: as §2, §3
# [23] = test system: M. graminicola strain Cbx76 (SDHC_H145R); assay: as above; settings: C_H145R, ratio IC50mutant/IC50WT
# Protocol: as §2, §3
smiles,measurement,setting,value
CC(C)C1C2CCC1c1c(NC(=O)c3cn(C)nc3C(F)F)cccc12 (stereo not drawn) [Isopyrazam],Frequency (of resistance development),"[1]; selection at 5× MSC, UV treatment 50 mJ cm^−2",1.4E-07
same,Frequency (of resistance development),"[1]; selection at 5× MSC, UV treatment 75 mJ cm^−2",1.7E-07
same,Frequency (of resistance development),"[1]; selection at MSC, UV treatment 50 mJ cm^−2",3.2E-07
same,Frequency (of resistance development),"[1]; selection at MSC, UV treatment 75 mJ cm^−2",4.1E-07
same,Resistance Factors (RFs) in vivo,"[2]; None, IPO323, ratio IC50mutant/IC50WT",1
same,IC50,"[2]; Zymoseptoria tritici, WT (IPO323), liquid culture growth, ±S.E. (triplicate), read-out: IC50 in vivo",55 ± 2 nM
same,Minimal selective concentration (MSC),[3],Isopyrazam 3 µM (MSC)
same,Resistance Factors (RFs) in vivo,[4],16.1
same,Resistance Factors (RFs) in vivo,[5],152.2
same,Resistance Factors (RFs) in vivo,[6],15.0
same,Resistance Factors (RFs) in vivo,[7],3.8
same,Resistance Factors (RFs) in vivo,[8],36.5
same,Resistance Factors (RFs) in vivo,[9],8.8
same,Resistance Factors (RFs) in vivo,[10],33 and 33.5
same,Resistance Factors (RFs) in vivo,[11],4.5
same,Resistance Factors (RFs) in vivo,[12],464.4
same,Resistance Factors (RFs) in vivo,[13],4.8
same,Resistance Factors (RFs) in vivo,[14],6.8
same,Resistance Factors (RFs) in vivo,[15],5.7
same,Resistance Factors (RFs) in vivo,[16],61.2
same,Resistance Factors (RFs) in vivo,[17],7.6
same,Resistance Factors (RFs) in vivo,[18],15.8
same,Resistance Factors (RFs) in vivo,[19],22.9
same,Resistance Factors (RFs) in vivo,[20],13.6
same,Resistance Factors (RFs) in vivo,[21],15.0
same,Resistance Factors (RFs) in vivo,[22],10.0
same,Resistance Factors (RFs) in vivo,[23],27.6
